Source: PubChem BioAssay AID330 (DTP/NCI, 2004)
Several values for one entry are separate records, joined by “and”; a condition that tells them apart may be missing. Identical values can stand only once. Toxic doses and inconclusive results are not listed. The calls were made as follows: active = survival T/C of 150% or more; inactive = T/C below 125% in these data.

Test system: P388 leukemia ip, CD2F1 mice, survival T/C
Assay: NCI In Vivo Anticancer Drug Screen. Data for tumor model P388 Leukemia (intraperitoneal) in CD2F1 (CDF1) mice
Conditions: endpoint: median survival time, higher = longer survival
In short: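 Mice carrying the transplanted tumor received test compound or vehicle. Survival was recorded in each group, and the value is the treated-group measurement divided by that of the vehicle-treated control group.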

[1] = dose: 50.0 mg/kg/injection, schedule: Q01DX009 (ip), vehicle: saline
[2] = dose: 50.0 mg/kg/injection, schedule: Q01DX005 (ip), vehicle: saline with Tween-80
[3] = dose: 100.0 mg/kg/injection, schedule: Q01DX005 (ip), vehicle: saline with Tween-80
[4] = dose: 200.0 mg/kg/injection, schedule: Q01DX005 (ip), vehicle: saline with Tween-80
[5] = dose: 50.0 mg/kg/injection, schedule: Q01DX009 (ip), vehicle: Klucel (hydroxypropylcellulose) (HPC)
[6] = dose: 100.0 mg/kg/injection, schedule: Q01DX009 (ip), vehicle: Klucel (hydroxypropylcellulose) (HPC)
[7] = dose: 100.0 mg/kg/injection, schedule: Q04DX002 (ip), vehicle: saline with Tween-80
[8] = dose: 200.0 mg/kg/injection, schedule: Q04DX002 (ip), vehicle: saline with Tween-80
[9] = dose: 60.0 mg/kg/injection, schedule: Q01DX005 (ip), vehicle: saline with Tween-80
[10] = dose: 120.0 mg/kg/injection, schedule: Q01DX005 (ip), vehicle: saline with Tween-80
[11] = dose: 240.0 mg/kg/injection, schedule: Q01DX005 (ip), vehicle: saline with Tween-80
[12] = dose: 25.0 mg/kg/injection, schedule: Q01DX005 (ip), vehicle: Klucel (hydroxypropylcellulose) (HPC)
[13] = dose: 50.0 mg/kg/injection, schedule: Q01DX005 (ip), vehicle: Klucel (hydroxypropylcellulose) (HPC)
[14] = dose: 100.0 mg/kg/injection, schedule: Q01DX005 (ip), vehicle: Klucel (hydroxypropylcellulose) (HPC)

Measured: T/C

COc1cc(Cc2nc3n(O)cc(C)nc-3c(=N)n2)cc(OC)c1OC
inactive: dose: 12.5 mg/kg/injection, schedule: Q01DX009 (ip), vehicle: saline 99 % of control | dose: 25.0 mg/kg/injection, schedule: Q01DX009 (ip), vehicle: saline 105 % of control | [1] 108 % of control

CCOc1cccc(/C=N/NC(=O)C(N)Cc2ccc(O)cc2)c1O (stereo not given)
inactive: [2] 99 % of control | [3] 99 % of control | [4] 99 % of control

CC(C)CCN=Cc1ccccc1O.CC(C)CCN=Cc1ccccc1O.[Zn]
inactive: [5] 98 % of control | [6] 104 % of control

OCCN(CCCN(CCO)C(=S)S)C(=S)S.[Cu+2]
inactive: dose: 12.5 mg/kg/injection, schedule: Q01DX005 (ip), vehicle: saline + Tween-80 + alcohol 98 % of control | dose: 25.0 mg/kg/injection, schedule: Q01DX005 (ip), vehicle: saline + Tween-80 + alcohol 99 % of control | dose: 50.0 mg/kg/injection, schedule: Q01DX005 (ip), vehicle: saline + Tween-80 + alcohol 102 % of control and 104 % of control

Cc1ccc(C)[nH][nH]c(N)n1
inactive: dose: 25.0 mg/kg/injection, schedule: Q01DX009 (ip), vehicle: water 99 % of control | dose: 50.0 mg/kg/injection, schedule: Q01DX009 (ip), vehicle: water 101 % of control | dose: 100.0 mg/kg/injection, schedule: Q01DX009 (ip), vehicle: water 101 % of control

COC(=O)CCc1cc(=O)oc2c3c(cc(OC)c12)OC1OC(=O)CC31 (stereo not given)
inactive: dose: 8.75 mg/kg/injection, schedule: Q01DX005 (ip), vehicle: Klucel (hydroxypropylcellulose) (HPC) 90 % of control | dose: 17.5 mg/kg/injection, schedule: Q01DX005 (ip), vehicle: Klucel (hydroxypropylcellulose) (HPC) 95 % of control | dose: 35.0 mg/kg/injection, schedule: Q01DX005 (ip), vehicle: Klucel (hydroxypropylcellulose) (HPC) 90 % of control

COc1ccc(N=C(C2=C(O)c3ccccc3C2=O)c2ccccc2)cc1
inactive: [7] 101 % of control | [8] 101 % of control | dose: 400.0 mg/kg/injection, schedule: Q04DX002 (ip), vehicle: saline with Tween-80 97 % of control

NC(=S)N/N=C/c1c(O)c2cc(Cl)ccc2[nH]c1=O
inactive: [2] 106 % of control | [3] 112 % of control | [4] 112 % of control

CN(C)C1C(=O)C(C(=O)NCNC2C(=O)N3C2SC(C)(C)C3C(=O)O)=C(O)C2(O)C(=O)C3=C(O)c4c(O)cccc4C(C)(O)C3CC12 (stereo not given)
inactive: [2] 100 % of control | [3] 104 % of control | [4] 90 % of control

O=C(NCc1ccco1)Nc1ccccc1C(F)(F)F
inactive: [9] 94 % of control | [10] 99 % of control | [11] 90 % of control

CCNC(=O)CCC(NS(=O)(=O)c1ccc(NC(C)=O)cc1)C(=O)O (stereo not given)
inactive: dose: 100.0 mg/kg/injection, schedule: Q04DX002 (ip), vehicle: Klucel (hydroxypropylcellulose) (HPC) 91 % of control | dose: 200.0 mg/kg/injection, schedule: Q04DX002 (ip), vehicle: Klucel (hydroxypropylcellulose) (HPC) 107 % of control | dose: 400.0 mg/kg/injection, schedule: Q04DX002 (ip), vehicle: Klucel (hydroxypropylcellulose) (HPC) 92 % of control

C/C(CCl)=N\NC1=NC2(CCCCC2)P(=O)(NNc2ncccn2)S1 (stereo not given)
inactive: dose: 37.5 mg/kg/injection, schedule: Q01DX005 (ip), vehicle: Klucel (hydroxypropylcellulose) (HPC) 103 % of control | dose: 60.0 mg/kg/injection, schedule: Q01DX005 (ip), vehicle: Klucel (hydroxypropylcellulose) (HPC) 102 % of control | dose: 75.0 mg/kg/injection, schedule: Q01DX005 (ip), vehicle: Klucel (hydroxypropylcellulose) (HPC) 102 % of control | dose: 120.0 mg/kg/injection, schedule: Q01DX005 (ip), vehicle: Klucel (hydroxypropylcellulose) (HPC) 100 % of control

O=C1C2CSCN2C(=O)CN1CCN1CCOCC1 (stereo not given)
inactive: dose: 60.0 mg/kg/injection, schedule: Q01DX005 (ip), vehicle: saline 100 % of control | dose: 120.0 mg/kg/injection, schedule: Q01DX005 (ip), vehicle: saline 100 % of control | dose: 240.0 mg/kg/injection, schedule: Q01DX005 (ip), vehicle: saline 100 % of control

N=C(N)c1ccc(-c2ccc(-c3ccc(C(=N)N)cc3)o2)cc1
inactive: dose: 3.13 mg/kg/injection, schedule: Q01DX009 (ip), vehicle: saline with Tween-80 94 % of control | dose: 6.25 mg/kg/injection, schedule: Q01DX009 (ip), vehicle: saline with Tween-80 102 % of control

CCC1(c2ccccc2)OCC(C2CCCCN2)O1 (stereo not given)
inactive: [5] 95 % of control | [6] 95 % of control

CC1=NN(C(C)(C)C)[Si](C)(C)C1
inactive: [12] 96 % of control | [13] 93 % of control | [14] 97 % of control

CC1Oc2[nH]c(=O)n(-c3ccc(Cl)cc3)c(=S)c2C1C (stereo not given)
inactive: dose: 12.5 mg/kg/injection, schedule: Q01DX001 (ip), vehicle: Klucel (hydroxypropylcellulose) (HPC) 100 % of control | dose: 25.0 mg/kg/injection, schedule: Q01DX001 (ip), vehicle: Klucel (hydroxypropylcellulose) (HPC) 102 % of control | dose: 50.0 mg/kg/injection, schedule: Q01DX001 (ip), vehicle: Klucel (hydroxypropylcellulose) (HPC) 101 % of control

N#CCc1ccc(C(C#N)C(=O)CCC(=O)C(C#N)c2ccc(CC#N)cc2)cc1 (stereo not given)
inactive: [2] 100 % of control | [3] 100 % of control

CCC(=O)c1cc2ccccc2c2ccccc12
inactive: dose: 12.5 mg/kg/injection, schedule: Q01DX005 (ip), vehicle: saline 96 % of control | dose: 25.0 mg/kg/injection, schedule: Q01DX005 (ip), vehicle: saline 100 % of control | [2] 103 % of control | dose: 50.0 mg/kg/injection, schedule: Q01DX005 (ip), vehicle: saline 100 % of control

O=c1ccn(C2OC(COC(c3ccccc3)(c3ccccc3)c3ccccc3)C(O)C2OC(c2ccccc2)(c2ccccc2)c2ccccc2)c(=O)[nH]1 (stereo not given)
inactive: [12] 97 % of control | [13] 99 % of control | [14] 94 % of control | dose: 200.0 mg/kg/injection, schedule: Q01DX005 (ip), vehicle: Klucel (hydroxypropylcellulose) (HPC) 93 % of control

CN1CCN(c2ccncc2S(=O)(=O)N2CCN(C)CC2)CC1
inactive: [1] 97 % of control | dose: 100.0 mg/kg/injection, schedule: Q01DX009 (ip), vehicle: saline 97 % of control | dose: 200.0 mg/kg/injection, schedule: Q01DX009 (ip), vehicle: saline 87 % of control

O=c1c2cncnc2sc2nc3ccccc3n12
inactive: [9] 95 % of control | [10] 94 % of control | [11] 88 % of control

O=C1NN(c2ccccc2)C(=O)/C1=C\c1ccccc1O
inactive: dose: 25.0 mg/kg/injection, schedule: Q01DX009 (ip), vehicle: saline with Tween-80 100 % of control and 96 % of control | dose: 43.75 mg/kg/injection, schedule: Q01DX005 (ip), vehicle: Klucel (hydroxypropylcellulose) (HPC) 104 % of control | dose: 43.75 mg/kg/injection, schedule: Q01DX009 (ip), vehicle: Klucel (hydroxypropylcellulose) (HPC) 95 % of control | dose: 50.0 mg/kg/injection, schedule: Q01DX009 (ip), vehicle: saline with Tween-80 94 % of control and 98 % of control | dose: 87.5 mg/kg/injection, schedule: Q01DX005 (ip), vehicle: Klucel (hydroxypropylcellulose) (HPC) 97 % of control | dose: 100.0 mg/kg/injection, schedule: Q01DX009 (ip), vehicle: saline with Tween-80 86 % of control and 97 % of control | dose: 175.0 mg/kg/injection, schedule: Q01DX005 (ip), vehicle: Klucel (hydroxypropylcellulose) (HPC) 98 % of control | dose: 175.0 mg/kg/injection, schedule: Q01DX009 (ip), vehicle: Klucel (hydroxypropylcellulose) (HPC) 102 % of control | dose: 200.0 mg/kg/injection, schedule: Q01DX009 (ip), vehicle: saline with Tween-80 86 % of control and 96 % of control | dose: 350.0 mg/kg/injection, schedule: Q01DX005 (ip), vehicle: Klucel (hydroxypropylcellulose) (HPC) 92 % of control | dose: 350.0 mg/kg/injection, schedule: Q01DX009 (ip), vehicle: Klucel (hydroxypropylcellulose) (HPC) 109 % of control | dose: 400.0 mg/kg/injection, schedule: Q01DX009 (ip), vehicle: saline with Tween-80 111 % of control

O=C1NC(=O)C2C(=O)NC(=O)C1C21CCc2ccccc21 (stereo not given)
inactive: [9] 97 % of control | [10] 86 % of control

CC(C)(C)c1ccc(C(=O)n2c(=S)oc3ccc(Cl)cc32)cc1
inactive: [9] 96 % of control | [10] 95 % of control | [11] 94 % of control

N=C(N)N1CCNc2ccc(Cl)cc2C1
inactive: [7] 96 % of control | [8] 91 % of control

CCOC(=O)c1cc2c(oc1=O)-c1cc(C)ccc1OC2C (stereo not given)
inactive: [9] 104 % of control | [10] 110 % of control | [11] 105 % of control

Cc1c(-c2ccccc2)oc(=O)c(Cl)c1N(C)C
inactive: [2] 102 % of control | [3] 100 % of control | [4] 100 % of control
